{"source": "patent EP2710893A1", "about": "“Methods of treating autism spectrum disorders and compositions for same” (Theta Biomedical Consulting&development Co., Inc, priority 2009, dated 2011)", "key": {"[1]": {"test_system": "brain blood vessel leakage", "assay": "Evans blue extravasation (brain blood vessel leakage) in mice", "type": "in vivo", "experimental": "Male BALB/6 mice (6 weeks old, Jackson Laboratories, Bar Harbor, ME) were injected in their tail vein with 0.2 ml of Evans blue (0.4%). Binding of Evans blue to the albumin found in the blood prevents Evans blue from escaping the circulation and constitutes a good marker from extravasation in brain parenchyma.\nBrain blood vessel leakage was assessed with Evans blue extravasation at 2 hr following Evans blue and 30 min after intraperitoneal injection of NT. Mice were anesthetized with a single intraperitoneal injection of ketamine/xylazine ([…]), an intracardiac catheter was inserted in the left ventricle, blood was withdrawn, and 10 ml normal saline was administered intracardially to wash any Evans blue from the systemic circulation. The mice were then decapitated and the whole brain was removed. For brain extravasated Evans blue measurements, the brains were first weighed and the Evans blue was then extracted in 1 ml of N,N-dimethylformamide overnight at 55 °C and the optical density was measured at 620 nm using a PerkinElmer Luminescence Spectrophotometer (Perkin Elmer, Norwalk, CT). EB concentration was calculated using a standard curve and values were normalized to the tissue weight and expressed as arbitrary units/mg of tissue. Five animals per group were estimated to be sufficient for significant differences given the variability (<50%) observed. Results of Evans blue/mg tissue were expressed as mean ± SD of percent change from control. This statistical analysis was chosen because it permits the experimental results to be compared to their own control and avoids variability from experiment to experiment. Values were then compared using the non-parametric Mann-Whitney U test. Significance is denoted by p<0.05. In order to induce brain blood vessel leakage, the mice were either treated only with an intraperitoneal injection (0.5 ml) of NT (500 nmol/kg body weight) or first pretreated with the flavonoid luteolin (40 mg/kg body weight) mixed in olive kernel extract to permit solubilization and increased absorption of the lipid-soluble luteolin. The mice not treated with luteolin were pretreated the same way only with the vehicle in order to keep the conditions similar [olive kernel extract, obtained from Minerva Edible Oils, Athens, Greece (http://www.minerva.com.gr/)]. […] When the mice were treated with both IL-33 (1 microg/mouse) and NT, brain leakage was even greater (Fig. 3); IL-33 alone had no effect. Pretreatment with the same amount of luteolin as before inhibited brain blood vessel leakage by 50% (Fig. 3). Using more luteolin could inhibit the synergistic effect of IL-33 and NT."}, "[2]": {"test_system": "mast cells", "assay": "Inhibition of mast cells", "type": "cell-based", "details": "Mast cell"}}, "data": [{"compound": "O=c1cc(-c2ccc(O)c(O)c2)oc2cc(O)cc(O)c12", "note": "[luteolin]", "values": [{"measurement": "inhibition of brain blood vessel leakage", "setting": "[1]; Figure 3 legend, intraperitoneal luteolin 10 min prior to injection of IL-33 plus NT", "result": "inhibited"}, {"measurement": "inhibition of brain blood vessel leakage", "setting": "[1]; NT-induced leakage, pretreatment with luteolin 40 mg/kg body weight mixed in olive kernel extract", "result": "completely inhibited"}, {"measurement": "inhibition of brain blood vessel leakage", "setting": "[1]; leakage induced by IL-33 (1 microg/mouse) and NT, pretreatment with luteolin 40 mg/kg body weight", "result": 50, "unit": "%"}]}, {"compound": "neurotensin [NT]", "values": [{"measurement": "increase in brain blood vessel leakage", "setting": "[1]; intraperitoneal injection of NT 500 nmol/kg body weight, Evans blue extravasation 30 min after NT, percent change from control", "result": 150, "unit": "%"}]}, {"compound": "O=c1c(O)c(-c2ccc(O)c(O)c2)oc2cc(O)cc(O)c12", "note": "[Quercetin]", "values": [{"measurement": "inhibition at 10 µM", "setting": "[2]", "result": 80, "unit": "%"}]}]}
